Laboratory results: patent US20220183997A1, “USE OF C[…] COMBINATION WITH ANTIBIOTICS” (GW Pharma Limited, priority 2019, published 2022)

Legend:
Type in all cases: cell-based
E. coli [1] = test: Disc diffusion test, antibiotic discs with CBD disc; conditions: antibiotic disc + 5 μM CBD disc vs antibiotic alone, 24 h
Description: (§1) Discs were impregnated with the following […]: Colistin (10 μg/ml), Rifampicin (15 μg/ml), Erythromycin (15 μg/ml), Kanamycin (30 μg/ml) and Vancomycin (5 μg/ml).
(§2) Concentration of the antibiotics used was based on previously published and established MIC values (Moskowitz et al., 2010; Rojas et al., 2017; Goldstein et al., 2018; Maclayton et al., 2006, Kshetry et al., 2016).
(§3) E. coli and S. aureus agar plates were prepared for the disc diffusion test by soaking a sterile paper disc in 5 μM CBD and placing it in the middle of the agar plate, while the impregnated antibiotic discs were placed equidistant to the CBD disc. Zone of inhibition was assessed after 24 h.

S. aureus [2] = test: CBD-mediated membrane vesicle inhibition, release quantified by nanoparticle tracking analysis; conditions: CBD 1 or 5 μM, 1 h
Description: (§4) E. coli and S. aureus cultures were maintained by plating on Mueller-Hinton agar plates and weekly sub-culturing was performed according to previously established methods (Iqbal et. al. 2013).
(§5) Before OMV isolation, all bacterial growth medium was pre-treated before use by ultracentrifugation at 75,000 g for 24 h, to ensure minimum contamination with extracellular vesicles (EVs) from the medium.
(§6) For OMV isolation, bacteria were grown in EV-free medium (as described above) for 24 h at 37° C. and 5% CO2, the culture medium collected and centrifuged once at 400 g for 10 min for removal of cells, followed by centrifugation at 4000 g for 1 h at 4° C. to remove cell debris. […]
(§7) Samples were diluted 1:50 in sterile-filtered EV-free DPBS and the number of particles in the field of view was maintained in the range of 20-40 with a minimum concentration of samples at 5×10^7 particles/ml. Camera settings were according to the manufacturer's instructions (Malvern), five 30 sec videos per sample were recorded and replicate histograms averaged. […]
(§8) The experiment was repeated three times and the OMVs were quantified using NTA analysis. Cell viability was assessed after 1 h treatment with CBD compared to controls and before the start of every experiment using viable count.

E. coli [3] = test: CBD-mediated OMV inhibition, OMV release quantified by nanoparticle tracking analysis; conditions: 1 h, vs control
Description: as §4, §5, §6, §7, §8

S. aureus [4] = test: Disc diffusion test, antibiotic discs with CBD disc; conditions: antibiotic disc + 5 μM CBD disc vs antibiotic alone, 24 h
Description: as §1, §2, §3

| Compound | sensitisation to antibiotic by CBD (in words) (E. coli [1]) | increase of antibacterial effect (radius of zone of inhibition) when combined with CBD (E. coli [1]) [%] | other results |
| --- | --- | --- | --- |
| CN[C@H](CC(C)C)C(=O)N[C@H]1C(=O)N[C@@H](CC(N)=O)C(=O)N[C@H]2C(=O)N[C@H]3C(=O)N[C@H](C(=O)N[C@H](C(=O)O)c4cc(O)cc(O)c4-c4cc3ccc4O)[C@H](O)c3ccc(c(Cl)c3)Oc3cc2cc(c3O[C@@H]2O[C@H](CO)[C@@H](O)[C@H](O)[C@H]2O[C@H]2C[C@](C)(N)[C@H](O)[C@H](C)O2)Oc2ccc(cc2Cl)[C@H]1O [Vancomycin] | did not increase antibacterial effects |  |  |
| CO[C@H]1/C=C/O[C@@]2(C)Oc3c(C)c(O)c4c(O)c(c(/C=N/N5CCN(C)CC5)c(O)c4c3C2=O)NC(=O)/C(C)=C\C=C\[C@H](C)[C@H](O)[C@@H](C)[C@@H](O)[C@@H](C)[C@H](OC(C)=O)[C@@H]1C [Rifampicin] |  | 50 |  |
| C=C(C)[C@@H]1CCC(C)=C[C@H]1c1c(O)cc(CCCCC)cc1O [CBD, Cannabidiol] |  |  | effect on membrane vesicle release (S. aureus [2]): no effect; reduction of total OMV release (E. coli [3]; 1 μM CBD): 73%; reduction of total OMV release (E. coli [3]; 5 μM CBD): 54% |
| CC[C@H]1OC(=O)[C@H](C)[C@@H](O[C@H]2C[C@@](C)(OC)[C@@H](O)[C@H](C)O2)[C@H](C)[C@@H](O[C@@H]2O[C@H](C)C[C@H](N(C)C)[C@H]2O)[C@](C)(O)C[C@@H](C)C(=O)[C@H](C)[C@@H](O)[C@]1(C)O [Erythromycin] |  | 35 | effect of CBD on antibacterial activity of antibiotic (in words) (S. aureus [4]): reduced antibacterial effects |
| NC[C@H]1O[C@H](O[C@H]2[C@H](O)[C@@H](O[C@H]3O[C@H](CO)[C@@H](O)[C@H](N)[C@H]3O)[C@H](N)C[C@@H]2N)[C@H](O)[C@@H](O)[C@@H]1O [Kanamycin] |  | 18 | increase of antibiotic activity (radius of zone around diffusion disk) by CBD (S. aureus [4]): 30% |
| Colistin [Colisitin] | not |  |  |
